# Patent US5780497A, “2-phenyl-1-[4-(amino-1-yl-alk-1-ynyl)-benzyl]-1H-indol-5-ols as estrogenic agents” (American Home Products Corporation, priority 1997, dated 1998)
# Assays:
# [1] = tested on: Ishikawa cells; experiment: Ishikawa Cell Alkaline Phosphatase Assay; type: cell-based; details: Homo sapiens, 48 h, read-out: % Activation
# Method: Ishikawa Cell Alkaline Phosphatase Assay
# Cell Maintenance and Treatment
# Ishikawa cells were maintained in DMEM/F12 (50%:50%) containing phenol red+10% fetal bovine serum and the medium was supplemented with 2 mM Glutamax, 1% Pen/Strap and 1 mM sodium pyruvate. Five days prior to the beginning of each experiment (treatment of cells) the medium was changed to phenol red-free DMEM/F12+10% dextran coated charcoal stripped serum. On the day before treatment, cells were harvested using 0.5% trypsin/EDTA and plated at a density of 5×10^4 cells/well in 96-well tissue culture plates. […] Cells were treated for 48 h prior to assay. […] Sample population for at each dose was n=8.
# Alkaline Phosnhatase Assay
# At the end of 48 h the media is aspirated and cells are washed three times with phosphate buffered saline (PBS). 50 μL of lysis buffer (0.1M Tris-HCl, pH 9.8, 0.2% Triton X-100) is added to each well. Plates are placed at -80° C. for a minimum of 15 minutes. Plates are thawed at 37° C. followed by the addition of 150 μL of 0.1M Tris-HCl, pH 9.8, containing 4 mM para-nitrophenylphosphate (pNPP) to each well (final concentration, 3 mM pNPP).
# Absorbance and slope calculations were made using the KineticCalc Application program (Bio-Tek Instruments, Inc., Winooski, Vt.). Results are expressed as the mean±S.D. of the rate of enzyme reaction (slope) averaged over the linear portion of the kinetic reaction curve (optical density readings every 5 minutes for 30 minutes absorbance reading).
# The four listed in the following were used as as reference standards:
# A description of these methods is described by Holinka, C. F., Hata, H., Kuramoto, H. and Gurpide, E. (1986) Effects of steroid hormones and antisteroids on alkaline phosphatase activity in human endometrial cancer cells (Ishikawa Line). Cancer Research, 46:2771-2774, and by Littlefield, B. A., Gurpide, E., Markiewicz, L., McKinley, B. and Hochberg, R. B. (1990) A simple and sensitive microtiter plate estrogen bioassay based on stimulation alkaline phosphatase in Ishikawa cells; Estrogen action of D5 adrenal steroids. Endocrinology, 6:2757-2762.
# [2] = target: T1, estrogen receptor (Homo sapiens, UniProt P03372); experiment: In vitro estrogen receptor binding assay (competition with [3H]-17β-estradiol); design: made in house; host or cells: CHO cells overexpressing the receptor (100,000 g cytosol)
# T1 sequence (P03372 1-595): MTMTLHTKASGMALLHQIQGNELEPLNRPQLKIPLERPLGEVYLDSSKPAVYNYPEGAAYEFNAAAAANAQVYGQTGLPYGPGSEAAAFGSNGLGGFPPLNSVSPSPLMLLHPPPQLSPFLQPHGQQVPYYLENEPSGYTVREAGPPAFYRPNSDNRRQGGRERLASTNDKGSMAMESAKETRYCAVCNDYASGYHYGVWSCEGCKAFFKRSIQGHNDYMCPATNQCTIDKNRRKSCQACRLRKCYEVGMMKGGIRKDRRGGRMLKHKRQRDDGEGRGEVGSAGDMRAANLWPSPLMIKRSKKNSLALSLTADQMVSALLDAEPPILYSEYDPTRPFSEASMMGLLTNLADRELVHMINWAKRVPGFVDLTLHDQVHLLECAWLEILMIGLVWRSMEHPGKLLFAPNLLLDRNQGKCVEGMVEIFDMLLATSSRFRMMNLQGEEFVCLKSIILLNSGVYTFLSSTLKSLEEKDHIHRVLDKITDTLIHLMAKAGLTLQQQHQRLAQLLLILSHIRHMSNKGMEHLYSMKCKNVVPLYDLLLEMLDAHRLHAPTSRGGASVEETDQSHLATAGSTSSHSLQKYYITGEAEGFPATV
# [3] = target: T1, estrogen receptor; experiment: 2X VIT ERE Transfection Assay (luciferase); type: cell-based; design: expressed in transfected cells; host or cells: CHO (Chinese Hamster Ovary) cells, stably transfected; details: 24 h; read-out: % Activation
# [4] = tested on: uterine growth; details: ovariectomized rat, compared with Tamoxifen; cited from earlier work
# [5] = tested on: bone; details: rat, in vivo; cited from earlier work
# [6] = tested on: bone; details: in humans; cited from earlier work
# [7] = tested on: uterus; details: in vivo; cited from earlier work
Compound,Emax [1] [%],RBA (Estrogen Receptor Affinity) [2],Emax at 1 µM [3] [%],stimulation of uterine growth [4],ability to spare bone [5],effect on the bone [6],agonism in the uterus [7]
"Cc1c(-c2ccc(O)cc2)n(Cc2ccc(C#CCN(C)C)cc2)c2ccc(O)cc12 [Example 4, 2-(4-Hydroxy-phenyl)-3-methyl-1-[4-(3-N,N-dimethyl-1-yl-prop-1-ynyl)-benzyl]-1H-indol-5-ol]",34,53,34,–,–,–,–
"Cc1c(-c2ccc(O)cc2)n(Cc2ccc(C#CCN3CCCCC3)cc2)c2ccc(O)cc12 [Example 5, 2-(4-Hydroxy-phenyl)-3-methyl-1-[4-(3-piperidin-1-yl-prop-1-ynyl)-benzyl]-1H-indol-5-ol]",27,23,17,–,–,–,–
O=C(c1ccc(OCCN2CCCCC2)cc1)c1c(-c2ccc(O)cc2)sc2cc(O)ccc12 [Raloxifene],5,–,–,to a lesser extent than Tamoxifen,maintaining the ability to spare bone,–,–
CC/C(=C(\c1ccccc1)c1ccc(OCCN(C)C)cc1)c1ccccc1 [Tamoxifen],0,–,–,–,–,estrogen agonist-like effect on the bone,partial agonist in the uterus
